From ChEMBL document CHEMBL4382216, “Asymmetric synthesis and biological evaluation of imidazole- and oxazole-containing synthetic lipoxin A4 mimetics (sLXms)” (Eur J Med Chem, 2019)
pIC50: −log10 of the molar value. Activity calls are given as the source filed them. The rule behind the calls is not given here.

Tests used:
[1] = target: T1, N-formyl peptide receptor 2 (Homo sapiens, UniProt P25090); experiment: Agonist activity at ALX/FPR2 in human THP1 cells harboring NF-kB-Luc assessed as inhibition of LPS-induced NFkB signalling activation by measuring reduction in TNFalpha secretion pretreated for 30 mins followed by LPS stimulation for 24 hrs by electrochemiluminescence assay; assay type: cell-based; settings: for pIC50: read-out: IC50
T1 sequence (P25090 whole entry): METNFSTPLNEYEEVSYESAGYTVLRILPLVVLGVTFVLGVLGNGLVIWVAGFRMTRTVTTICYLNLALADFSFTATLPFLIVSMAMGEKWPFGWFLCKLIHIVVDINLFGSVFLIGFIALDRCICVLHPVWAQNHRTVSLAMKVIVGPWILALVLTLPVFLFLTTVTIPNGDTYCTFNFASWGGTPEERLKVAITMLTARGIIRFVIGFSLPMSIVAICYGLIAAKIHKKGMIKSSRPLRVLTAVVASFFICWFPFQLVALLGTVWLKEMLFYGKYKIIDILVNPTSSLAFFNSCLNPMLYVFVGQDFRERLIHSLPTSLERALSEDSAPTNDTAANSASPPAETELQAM

Homo sapiens [2] = species on record: Homo sapiens; experiment: Activation of Luc-fused NFkB (unknown origin) expressed in non-stimulated human THP1 cells assessed as relative luminescence unit at 10^-10 M after 24 hrs by luciferase reporter gene assay (reference value: 100%); assay type: cell-based
[3] = target: T1, N-formyl peptide receptor 2; experiment: Agonist activity at ALX/FPR2 in human THP1 cells harboring NF-kB-Luc assessed as inhibition of LPS-induced NFkB signalling activation by measuring reduction in IL-1beta secretion pretreated for 30 mins followed by LPS stimulation for 24 hrs by electrochemiluminescence assay; assay type: cell-based; settings: for pIC50: read-out: IC50
Homo sapiens [4] = species on record: Homo sapiens; experiment: Activation of Luc-fused NFkB (unknown origin) expressed in non-stimulated human THP1 cells assessed as relative luminescence unit at 10^-11 M after 24 hrs by luciferase reporter gene assay (reference value: 100%); assay type: cell-based
Homo sapiens [5] = species on record: Homo sapiens; experiment: Activation of Luc-fused NFkB (unknown origin) expressed in non-stimulated human THP1 cells assessed as relative luminescence unit at 10^-7 M after 24 hrs by luciferase reporter gene assay (reference value: 100%); assay type: cell-based
Homo sapiens [6] = species on record: Homo sapiens; experiment: Activation of Luc-fused NFkB (unknown origin) expressed in non-stimulated human THP1 cells assessed as relative luminescence unit at 10^-12 M after 24 hrs by luciferase reporter gene assay (reference value: 100%); assay type: cell-based
[7] = target: T1, N-formyl peptide receptor 2; experiment: Agonist activity at ALX/FPR2 in human THP1 cells harboring NF-kB-Luc assessed as inhibition of LPS-induced NFkB signalling activation by measuring reduction in IL-6 secretion pretreated for 30 mins followed by LPS stimulation for 24 hrs by electrochemiluminescence assay; assay type: cell-based; settings: for pIC50: read-out: IC50
Homo sapiens [8] = species on record: Homo sapiens; experiment: Activation of Luc-fused NFkB (unknown origin) expressed in non-stimulated human THP1 cells assessed as relative luminescence unit at 10^-6 M after 24 hrs by luciferase reporter gene assay (reference value: 100%); assay type: cell-based
[9] = target: T1, N-formyl peptide receptor 2; experiment: Agonist activity at ALX/FPR2 in human THP1 cells harboring NF-kB-Luc assessed as inhibition of LPS-induced NFkB signalling activation by measuring reduction in IL-12p70 secretion pretreated for 30 mins followed by LPS stimulation for 24 hrs by electrochemiluminescence assay; assay type: cell-based; settings: for pIC50: read-out: IC50
Homo sapiens [10] = species on record: Homo sapiens; experiment: Activation of Luc-fused NFkB (unknown origin) expressed in non-stimulated human THP1 cells assessed as relative luminescence unit at 10^-9 M after 24 hrs by luciferase reporter gene assay (reference value: 100%); assay type: cell-based
[11] = target: T1, N-formyl peptide receptor 2; experiment: Agonist activity at ALX/FPR2 in human THP1 cells harboring NF-kB-Luc assessed as inhibition of LPS-induced NFkB signalling activation pretreated for 30 mins followed by LPS stimulation for 24 hrs by luciferase reporter gene assay; assay type: cell-based
[12] = target: T1, N-formyl peptide receptor 2; experiment: Agonist activity at ALX/FPR2 in human THP1 cells harboring NF-kB-Luc assessed as inhibition of LPS-induced NFkB signalling activation by measuring reduction in IFNgamma secretion pretreated for 30 mins followed by LPS stimulation for 24 hrs by electrochemiluminescence assay; assay type: cell-based; settings: for pIC50: read-out: IC50
THP-1 [13] = experiment: Cytotoxicity against human THP1 cells harboring NFkB-Luc assessed as LDH release at 10'12 M after 24 hrs by spectrophotometric method relative to control; assay type: cell-based; settings: thp-1, 24 h
THP-1 [14] = experiment: Cytotoxicity against human THP1 cells harboring NFkB-Luc assessed as LDH release at 10'9 M after 24 hrs by spectrophotometric method relative to control; assay type: cell-based; settings: thp-1, 24 h
THP-1 [15] = experiment: Cytotoxicity against human THP1 cells harboring NFkB-Luc assessed as LDH release at 10'10 M after 24 hrs by spectrophotometric method relative to control; assay type: cell-based; settings: thp-1, 24 h
Homo sapiens [16] = species on record: Homo sapiens; experiment: Activation of Luc-fused NFkB (unknown origin) expressed in non-stimulated human THP1 cells assessed as relative luminescence unit at 10^-8 M after 24 hrs by luciferase reporter gene assay (reference value: 100%); assay type: cell-based
THP-1 [17] = experiment: Cytotoxicity against human THP1 cells harboring NFkB-Luc assessed as LDH release at 10'8 M after 24 hrs by spectrophotometric method relative to control; assay type: cell-based; settings: thp-1, 24 h
THP-1 [18] = experiment: Cytotoxicity against human THP1 cells harboring NFkB-Luc assessed as LDH release at 10'11 M after 24 hrs by spectrophotometric method relative to control; assay type: cell-based; settings: thp-1, 24 h
THP-1 [19] = experiment: Cytotoxicity against human THP1 cells harboring NFkB-Luc assessed as LDH release at 10'7 M after 24 hrs by spectrophotometric method relative to control; assay type: cell-based; settings: thp-1, 24 h
THP-1 [20] = experiment: Cytotoxicity against human THP1 cells harboring NFkB-Luc assessed as LDH release at 10'6 M after 24 hrs by spectrophotometric method relative to control; assay type: cell-based; settings: thp-1, 24 h
HEK293 [21] = experiment: Induction of intracellular calcium accumulation in HEK293 cells at 0.01 nM to 100 nM by Fluo-4 dye based fluorescence spectrophotometric assay; assay type: functional, cell-based; settings: Homo sapiens
HEK293 [22] = experiment: Induction of intracellular calcium accumulation in HEK293 cells at 2 nM by Fluo-4 dye based fluorescence spectrophotometric assay; assay type: functional, cell-based; settings: Homo sapiens
[23] = target: T2, N-formyl peptide receptor 2 (Homo sapiens) (UniProt P25090); experiment: Agonist activity at ALX/FPR2 (unknown origin) expressed in HEK293 cells co-expressing Galphaq assessed as induction of intracellular calcium accumulation at 2 nM by Fluo-4 dye based fluorescence spectrophotometric assay; assay type: functional, cell-based
T2 sequence (whole entry): T1 sequence (P25090 whole entry)

[24] = target: T2, N-formyl peptide receptor 2 (Homo sapiens); experiment: Agonist activity at ALX/FPR2 in human THP1 cells harboring NF-kB-Luc assessed as inhibition of LPS-induced NFkB signalling activation by measuring IL-6 secretion at 10^-12 M pretreated for 30 mins followed by LPS stimulation for 24 hrs by electrochemiluminescence assay (reference value: 100%); assay type: cell-based; design: scale not given: the % may be the effect or the level left
[25] = target: T2, N-formyl peptide receptor 2 (Homo sapiens); experiment: Agonist activity at ALX/FPR2 in human THP1 cells harboring NF-kB-Luc assessed as inhibition of LPS-induced NFkB signalling activation by measuring NF-kB activation level at 10^-12 M pretreated for 30 mins followed by LPS stimulation for 24 hrs by luciferase reporter gene assay; assay type: cell-based; design: scale not given: the % may be the effect or the level left
[26] = target: T2, N-formyl peptide receptor 2 (Homo sapiens); experiment: Agonist activity at ALX/FPR2 in human THP1 cells harboring NF-kB-Luc assessed as inhibition of LPS-induced NFkB signalling activation by measuring TNFalpha secretion at 10^-12 M pretreated for 30 mins followed by LPS stimulation for 24 hrs by electrochemiluminescence assay (reference value: 100%); assay type: cell-based; design: scale not given: the % may be the effect or the level left
[27] = target: T2, N-formyl peptide receptor 2 (Homo sapiens); experiment: Agonist activity at ALX/FPR2 in human THP1 cells harboring NF-kB-Luc assessed as inhibition of LPS-induced NFkB signalling activation by measuring IL-12p70 secretion at 10^-12 M pretreated for 30 mins followed by LPS stimulation for 24 hrs by electrochemiluminescence assay (reference value: 100%); assay type: cell-based; design: scale not given: the % may be the effect or the level left
[28] = target: T2, N-formyl peptide receptor 2 (Homo sapiens); experiment: Agonist activity at ALX/FPR2 in human THP1 cells harboring NF-kB-Luc assessed as inhibition of LPS-induced NFkB signalling activation by measuring IL-1beta secretion at 10^-12 M pretreated for 30 mins followed by LPS stimulation for 24 hrs by electrochemiluminescence assay (reference value: 100%); assay type: cell-based; design: scale not given: the % may be the effect or the level left
[29] = target: T2, N-formyl peptide receptor 2 (Homo sapiens); experiment: Agonist activity at ALX/FPR2 in human THP1 cells harboring NF-kB-Luc assessed as inhibition of LPS-induced NFkB signalling activation by measuring IFNgamma secretion at 10^-12 M pretreated for 30 mins followed by LPS stimulation for 24 hrs by electrochemiluminescence assay (reference value: 100%); assay type: cell-based; design: scale not given: the % may be the effect or the level left
HEK293 [30] = experiment: Induction of intracellular calcium accumulation in HEK293 cells at 1 uM by Fluo-4 dye based fluorescence spectrophotometric assay; assay type: functional, cell-based; settings: Homo sapiens
[31] = target: T2, N-formyl peptide receptor 2 (Homo sapiens); experiment: Agonist activity at ALX/FPR2 (unknown origin) expressed in HEK293 cells co-expressing Galphaq assessed as induction of intracellular calcium accumulation at 1 uM by Fluo-4 dye based fluorescence spectrophotometric assay; assay type: functional, cell-based

SMILES	pIC50 [1]	Activity (Homo sapiens [2])	pIC50 [3]	Activity (Homo sapiens [4])	Activity (Homo sapiens [5])	Activity (Homo sapiens [6])	pIC50 [7]	Activity (Homo sapiens [8])	pIC50 [9]	Activity (Homo sapiens [10])	pIC50 [11]	pIC50 [12]	Activity (Homo sapiens [16])	IC50 [1]	IC50 [3]	IC50 [7]	IC50 [12]	also measured
CCCCC[C@H](O)c1c(/C=C/[C@@H](O)[C@@H](O)CCCC(=O)OC)nc(C)n1C	8.47	8.9%	8.59	4.4%	3.7%	5.2%	7.22	5.5%	10.00	4.6%	7.60	8.66	–	–	–	–	–	–
CCCCC[C@H](O)c1nc(-c2ccccc2)oc1/C=C/[C@@H](O)[C@@H](O)CCCC(=O)OC(C)C	8.17	6.2%	8.49	4.5%	4%	6.2%	7.50	6.1%	8.29	5.3%	7.16	8.60	4.3%	–	–	–	–	fold change (FC) (THP-1 [13]): 1.1; fold change (FC) (THP-1 [14]): 0.9; fold change (FC) (THP-1 [15]): 1; fold change (FC) (THP-1 [17]): 1; fold change (FC) (THP-1 [18]): 1.1; fold change (FC) (THP-1 [19]): 1; fold change (FC) (THP-1 [20]): 1; Activity (HEK293 [21]): inactive
COC(=O)CCC[C@H](O)[C@H](O)/C=C/c1nc(C)n(C)c1[C@@H](C)O	–	9.3%	–	8.8%	9.4%	9.7%	–	9.6%	8.42	8.8%	7.56	–	10.4%	Not Active	Not Active	Not Active	Not Active	–
CCC[C@H](O)c1c(/C=C/[C@@H](O)[C@@H](O)CCCC(=O)OC)nc(C)n1C	–	3.2%	8.44	1.9%	1.4%	1.4%	–	1.3%	8.22	1.7%	7.50	9.05	1.6%	Not Active	–	Not Active	–	–
CCCCC[C@@H](O)c1nc(-c2ccccc2)oc1/C=C/[C@@H](O)[C@@H](O)CCCC(=O)OC(C)C	8.19	3.2%	–	2.8%	3%	3.4%	8.17	2.7%	–	2.7%	7.43	–	2.6%	–	Not Active	–	Not Active	IC50 [9]: Not Active
CCC[C@@H](O)c1c(/C=C/[C@@H](O)[C@@H](O)CCCC(=O)OC)nc(C)n1C	8.32	1.8%	8.43	1.6%	1.4%	1.8%	7.25	0.9%	8.47	2.2%	7.39	8.37	–	–	–	–	–	–
COC(=O)CCC[C@H](O)[C@H](O)/C=C/c1nc(C)n(C)c1[C@H](C)O	–	4.5%	–	–	3.5%	3.1%	–	2.4%	–	3.4%	7.56	–	–	Not Active	Not Active	Not Active	Not Active	IC50 [9]: Not Active
CSCC[C@H](NC(=O)[C@@H](NC(=O)[C@H](CCSC)NC(=O)[C@H](Cc1ccc(O)cc1)NC(=O)[C@H](CCCCN)NC(=O)[C@@H](N)Cc1c[nH]c2ccccc12)C(C)C)C(=O)O	–	–	–	–	–	–	–	–	–	–	–	–	–	–	–	–	–	Activity (HEK293 [22]): inactive; Activity [23]: Active
CCCCC[C@@H](O)c1ccccc1/C=C/[C@@H](O)[C@@H](O)CCCC(=O)OC	–	–	–	–	–	2.9%	–	–	–	–	–	–	–	–	–	–	–	Activity [24]: 61.1%; fold change (FC) (THP-1 [13]): 0.9; Activity [25]: 80%; Activity [26]: 64.2%; Activity [27]: 62.9%; Activity [28]: 39.7%; Activity [29]: 83.9%
Nc1ncnc2c1ncn2[C@@H]1O[C@H](COP(=O)(O)OP(=O)(O)OP(=O)(O)O)[C@@H](O)[C@H]1O	–	–	–	–	–	–	–	–	–	–	–	–	–	–	–	–	–	Activity (HEK293 [30]): Active; Activity [31]: Active
